Source: patent US9023845B2, “Compositions and methods for treating lysosomal disorders” (priority 2007, dated 2015)
Entries after “also recorded” stand apart in the source; their conditions may differ.

Assays:
[1] = test system: Gaucher and/or Fabry B-cell lines; assay: Effect on cultured cell GSLs (TLC, orcinol detection); type: cell-based; conditions: 3 days, GSL fractions by TLC/orcinol
Fabry mice [2] = conditions: mouse, in vivo
Fabry mice [3] = conditions: mouse, in vivo, ip

## CCOC/C=C/c1ccc(-c2nc(-c3ccc(NC(C)C)cc3)c(-c3ccc(NC(C)C)cc3)[nH]2)cc1 [Formula 2]
[1]; 4 μM
  Gb3 levels: decrease
  LacCer and GlcCer levels: increased
[1]; 8 μM
  complex GSL levels: significant reduced
Fabry mice [2]
  heart Gb3 staining (VT1): effective in reducing heart Gb3 staining
  liver Gb3 staining (VT1): essentially no residual staining for Gb3 within the liver; also recorded: considerably less than in the control group; also recorded: more effective in reducing liver Gb3 staining as compared to mice treated with cyclosporine; also recorded: essentially removed Gb3 from the liver Kupffer cells
Fabry mice [3]
  VT1 staining: decreased VT1 staining
  levels of GlcCer and/or LacCer: increased levels
  levels of complex GSLs such as Gb3: lower levels
